Test results: patent US10028960B2, “Pyrimidine compounds as JAK kinase inhibitors” (THERAVANCE BIOPHARMA R&D IP, LLC, priority 2016, dated 2018)
Read-outs that look alike come from different tables or passages of the source.

How the values were obtained:
JAK1 = JAK1 (Homo sapiens (Human), UniProt P23458); assay: LanthaScreen JAK biochemical assay, JAK1
Experimental: (§1) A panel of four LanthaScreen JAK biochemical assays (JAK1, 2, 3 and Tyk2) were carried in a common kinase reaction buffer (50 mM HEPES, pH 7.5, 0.01% Brij-35, 10 mM MgCl2, and 1 mM EGTA). Recombinant GST-tagged JAK enzymes and a GFP-tagged STAT1 peptide substrate were obtained from Life Technologies.

JAK2 = JAK2 (Homo sapiens (Human), UniProt O60674); assay: LanthaScreen JAK biochemical assay, JAK2
Chain of JAK2 (O60674 whole entry): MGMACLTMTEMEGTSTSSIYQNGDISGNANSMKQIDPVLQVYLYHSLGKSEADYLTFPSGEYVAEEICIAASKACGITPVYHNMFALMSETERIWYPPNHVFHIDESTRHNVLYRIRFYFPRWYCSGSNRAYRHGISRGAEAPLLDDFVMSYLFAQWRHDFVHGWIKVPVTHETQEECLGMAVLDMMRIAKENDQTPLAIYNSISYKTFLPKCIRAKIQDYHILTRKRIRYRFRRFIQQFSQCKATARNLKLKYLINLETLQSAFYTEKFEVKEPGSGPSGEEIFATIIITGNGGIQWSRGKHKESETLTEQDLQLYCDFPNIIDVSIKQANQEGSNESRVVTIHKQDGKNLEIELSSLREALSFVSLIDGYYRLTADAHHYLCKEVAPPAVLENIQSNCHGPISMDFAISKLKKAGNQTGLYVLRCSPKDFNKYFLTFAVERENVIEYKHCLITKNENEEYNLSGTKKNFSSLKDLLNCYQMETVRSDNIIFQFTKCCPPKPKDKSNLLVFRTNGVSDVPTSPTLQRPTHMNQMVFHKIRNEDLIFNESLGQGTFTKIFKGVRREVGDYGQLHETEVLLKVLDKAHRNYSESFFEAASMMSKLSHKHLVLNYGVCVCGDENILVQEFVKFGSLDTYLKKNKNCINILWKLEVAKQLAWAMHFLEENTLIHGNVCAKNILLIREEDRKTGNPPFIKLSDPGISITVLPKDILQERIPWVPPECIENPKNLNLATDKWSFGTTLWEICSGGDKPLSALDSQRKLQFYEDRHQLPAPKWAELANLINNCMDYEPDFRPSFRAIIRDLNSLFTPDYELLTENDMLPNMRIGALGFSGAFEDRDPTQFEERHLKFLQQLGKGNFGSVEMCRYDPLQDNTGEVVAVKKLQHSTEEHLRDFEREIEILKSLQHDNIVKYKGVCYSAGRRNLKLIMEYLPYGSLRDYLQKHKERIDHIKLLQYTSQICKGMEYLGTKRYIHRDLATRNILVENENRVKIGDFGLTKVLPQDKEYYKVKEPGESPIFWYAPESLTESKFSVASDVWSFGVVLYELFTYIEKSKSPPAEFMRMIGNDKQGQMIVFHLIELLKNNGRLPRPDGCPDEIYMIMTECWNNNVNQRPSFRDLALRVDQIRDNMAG
Experimental: as §1

[1] = Determination of absorption in cannulated rats; assay type: in vivo, Sprague Dawley rats; conditions: rat
Experimental: Oral bioavailability (F %), fraction absorbed (Fa %) and fraction escaping hepatic clearance (Fh %) were determined in Sprague Dawley rats from the following two studies:
(1) Pharmacokinetics in rats following an IV dose of test compound: Following IV dosing, plasma samples were typically collected from 0-6 hr. Drug levels were determined using an LC-MS-MS method. The resulting drug levels were used to compute the IV pharmacokinetic parameters: AUC IV and Dose IV.
(2) Rats that have been cannulated in their portal vein (PV) and also in their jugular vein (JV) were dosed orally with test compound. Following oral dosing, plasma samples were typically collected from 0-6 hr from both the portal vein and the jugular vein. Drug levels were determined using an LC-MS-MS method. The resulting drug levels were used to compute the following pharmacokinetic parameters: AUC PO PV, AUC PO JV, and Dose PO.
Using data derived from the above studies, the oral bioavailability F %, and the quantities Fa % and Fh % were calculated from the following formulas: F %=(AUC PO JV/AUC IV)*(Dose IV/Dose PO)*100 Fa %=(AUC PO PV/AUC IV)*(Dose IV/Dose PO)*100 Fh %=AUC PO JV/AUC PO PV
AUC PO JV=Area under the curve following oral dose and plasma collected from the jugular vein
AUC PO PV=Area under the curve following oral dose and plasma collected from the portal vein
AUC IV=Area under the curve following an intravenous dose
Dose IV=Intravenous Dose in mg/kg
Dose PO=Oral Dose in mg/kg

[2] = in vivo
Excerpt: The objective of this assay was to determine the epidermal, dermal and plasma pharmacokinetics of a test compound following a 24 hr exposure to intact mouse or mini-pig skin.
Twenty-four hours prior to dosing the hair was shaved from the back of 25 g male Balb/c mice exposing an area at of least 6 cm^2 (about 10% of body surface) and, in a separate experiment, of 10 kg Gottingen mini-pigs exposing an area of at least 450 cm^2 (about 10% of body surface). […] The skin was covered with an adhesive cover to prevent loss of compound to the cage or bedding.
Following 24 h exposure, the backs were gently washed with soap and water to remove non-absorbed drug and patted dry. Immediately following this washing, blood was drawn by cardiac puncture from the mice and via venipuncture from the mini-pigs. The outer skin (stratum corneum) was then removed by adhesive tape stripping. Upon exposure of the epidermis a 0.5 cm punch biopsy was taken. The epidermis and dermis were quickly separated, weighed and snap frozen.

[3] = Colon pharmacokinetics in rats; conditions: Sprague Dawley, rat, colon and plasma, po, 5 mg/kg
Experimental: The test compound was formulated in 0.5% methyl-cellulose in water and dosed via oral gavage at 3.2 mg/kg and 100 mg/kg to Sprague Dawley rats. At various time points (typically 0.5, 1, 3, 6, 24 hr) post dosing, blood samples were removed via cardiac puncture and intact colons were excised from the rats. Blood samples were centrifuged at 1500×g for 15 min to collect plasma. Colons were washed with ice cold phosphate buffered saline (PBS), weighed, and homogenized at a dilution of 1:10 in PBS. Plasma and colon levels of test compound were determined by LC-MS analysis against analytical standards constructed into a standard curve in the test matrix. A colon to plasma ratio was determined as the ratio of the colon AUC to the plasma AUC in μg hr/g.

Chain of JAK1 (P23458 whole entry): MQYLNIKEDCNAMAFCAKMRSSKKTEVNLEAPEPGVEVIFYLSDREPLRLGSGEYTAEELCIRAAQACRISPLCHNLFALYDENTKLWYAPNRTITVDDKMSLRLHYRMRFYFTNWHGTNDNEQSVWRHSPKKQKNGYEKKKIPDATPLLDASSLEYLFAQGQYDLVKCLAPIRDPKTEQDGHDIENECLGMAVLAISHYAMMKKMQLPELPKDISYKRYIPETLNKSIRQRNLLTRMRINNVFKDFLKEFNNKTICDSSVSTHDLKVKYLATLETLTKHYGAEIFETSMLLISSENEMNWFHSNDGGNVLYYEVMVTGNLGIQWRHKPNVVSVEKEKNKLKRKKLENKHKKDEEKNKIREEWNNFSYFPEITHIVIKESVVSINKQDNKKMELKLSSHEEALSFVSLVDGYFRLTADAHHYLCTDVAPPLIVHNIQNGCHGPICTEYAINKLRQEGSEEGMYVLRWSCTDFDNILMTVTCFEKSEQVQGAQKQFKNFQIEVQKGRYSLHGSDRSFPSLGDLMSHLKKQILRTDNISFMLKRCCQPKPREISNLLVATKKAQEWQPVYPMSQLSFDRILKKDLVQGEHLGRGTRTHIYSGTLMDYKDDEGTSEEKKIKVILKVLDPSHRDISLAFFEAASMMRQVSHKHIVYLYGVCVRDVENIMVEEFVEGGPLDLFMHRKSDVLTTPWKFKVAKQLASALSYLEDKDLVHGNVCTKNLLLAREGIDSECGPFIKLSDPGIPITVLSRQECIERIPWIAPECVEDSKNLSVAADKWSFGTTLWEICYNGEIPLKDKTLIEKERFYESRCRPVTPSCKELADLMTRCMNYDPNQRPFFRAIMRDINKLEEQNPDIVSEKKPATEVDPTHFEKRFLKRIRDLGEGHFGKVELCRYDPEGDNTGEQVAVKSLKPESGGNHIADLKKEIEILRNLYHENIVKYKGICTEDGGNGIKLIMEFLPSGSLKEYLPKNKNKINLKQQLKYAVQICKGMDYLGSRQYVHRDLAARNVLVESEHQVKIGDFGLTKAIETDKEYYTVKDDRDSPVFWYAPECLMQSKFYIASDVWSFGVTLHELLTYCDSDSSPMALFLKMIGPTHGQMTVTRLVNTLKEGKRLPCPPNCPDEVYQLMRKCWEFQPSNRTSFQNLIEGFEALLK

COc1cc(Nc2cc(CO)[nH]n2)nc(N(C)[C@@H]2C[C@H]3CCC[C@@H](C2)N3S(=O)(=O)N2CC(C#N)C2)n1 [Example 2, 1-(((1R,3s,5S)-3-((4-((5-(Hydroxymethyl)-1H-pyrazol-3-yl)amino)-6-methoxypyrimidin-2-yl)(methyl)amino)-9-azabicyclo[3.3.1]nonan-9-yl)sulfonyl)azetidine-3-carbonitrile]
JAK 1 (pKi) (JAK1): A (A represents a pKi value≥10 (Ki≤0.1 nM))
JAK 2 (pKi) (JAK2): A (A represents a pKi value≥10 (Ki≤0.1 nM))
bioavailability ([1]; Sprague Dawley, plasma (jugular vein), oral vs IV, read-out: oral bioavailability (F %)): < 5%
absorption at the portal vein (Fa %) ([1]; oral, portal vein): less than 25%
duration of sustained dermal levels ([2]; Gottingen, minipig): at least 7 days
duration of sustained dermal levels ([2]; male, Balb/c, mouse): at least 2 days
Kp [3]: > 250
